Several values for one entry are separate records, joined by “and”; a condition that tells them apart may be missing. Identical values can stand only once.
Legend:
MCF-7 = assay: MTT inhibition of tumor cells in vitro (Example 3); type: cell-based, Human; conditions: 48 hours; for Inhibition rate, MCF-7: 40 μg/mL
Description: (§1) Human resources tumor cell line […], […], HT29, MCF-7 and A875 were provided by Cancer Hospital, Chinese Academy of Medical Sciences.
(§2) Cells were passaged every 2 or 3 days, and all the experiments were carried out on exponentially growing cells.
(§3) All cells were cultured in a humidified atmosphere (5% CO2 and […]), and passaged every 2 or 3 days. Cells were harvested on exponentially growing phase, and cell suspension was prepared with 2×10^4 cells/mL, added with 100 μL per well of 96-well plates, and cultured for 24 h in incubator. 100 μL medium without cells was added per well as blank group.
(§4) Compound (1), (2), (3), (4), (7) or (8) was dissolved in DMSO respectively, and diluted with 1640 medium at a final concentration of 400 μg/mL, so as to that of the Cisplatin. Cells were divided into 9 groups, they were blank group, model group, Compound (1), (2), (3), (4), (7) and (8) groups, and Cisplatin group as the positive one, 6 wells per group.
(§5) Before drug administration, supernatant of each well was removed and fresh 1640 medium was added, 180 μL per well. Compounds and Cisplatin were added with 20 μL per well respectively at a final concentration of 40 μg/mL. Wells of blank and model groups were added with 0.5% DMSO, 20 μL per well. 48 hours later, 20 μL MTT was added per well and continued to culture for 4 hours, then the supernatant was replaced carefully and DMSO was added with 150 μL per well to end the experiment. The 96-well plates were shaken for 10 mins and read the absorbance at 490 nm. The Inhibition rate was calculated.
(§6) Inhibition rate=[(ODmodel−ODblank)−(ODdrugs−ODblank)]/(ODmodel−ODblank)×100%
(§7) The MTT experiment was repeated three times.

A875 = assay: MTT inhibition of tumor cells in vitro (Example 3); type: cell-based, Human; conditions: 48 hours; for Inhibition rate, A875: 40 μg/mL
Description: as §1, §2, §3, §4, §5, §6, §7

[1] = test system: BGC823 human gastric adenocarcinoma; assay: Anti-BGC823 human gastric adenocarcinoma in BALB/c (nu/nu) nude mice; type: in vivo; set-up: tumor volume of BGC823-bearing nude mice / Tumor mass: unit not given here; conditions: for body weight of BGC823-bearing nude mice / tumor volume of BGC823-bearing nude mice: Sc; for body weight of BGC823-bearing nude mice: in g (unit assumed); for Inhibition rate: from average tumor mass vs model; for Tumor index: tumor mass/body weight
Description: Human resources gastric adenocarcinoma cell line BGC823 was cultured in the same condition as the experiment 4.
The body weight and the tumor volume were measured and recorded weekly. The tumor volume was calculated according to the formula below.
Tumors were departed and weighed. Tumor Index and inhibition rate were calculated as below: […]

HT29 human colon cancer = assay: Anti-HT29 human colon cancer in BALB/c (nu/nu) nude mice; type: in vivo; set-up: body weight of HT29-bearing nude mice / tumor volume of HT29-bearing nude mice / Tumor mass: unit not given here; conditions: for tumor volume of HT29-bearing nude mice / body weight of HT29-bearing nude mice: Sc; for Inhibition rate: from average tumor mass vs model; for Tumor index: tumor mass/body weight
Description: Human resources Colon cancer cell line HT29 was cultured in the same condition as the experiment 4. […] Mice were randomly assigned into 7 groups: […] The body weight and the tumor volume were measured and recorded weekly. The tumor volume was calculated according to the formula below. […] The tumors were departed and weighed.

HepG2 human heptoma = assay: Anti-HepG2 human heptoma in BALB/c (nu/nu) nude mice; conditions: for tumor volume of HepG2-bearing nude mice / body weight of HepG2-bearing nude mice: Sc; for Inhibition rate: from average tumor mass vs model; for Tumor index: tumor mass/body weight
Description: 70 male BALB/c (nu/nu) nude mice (18-20 g, License NO. SCXK (BJ) 2009-0017, National Institutes for Food and Drug Control.) were adaptively bred for one week, and then used in the following experiment.
Human resources hepatoma cell line HepG2 was cultured in RPMI-1640 medium containing 100 U/mL Penicillin and 100 μg/mL Streptomycin with 10% fetal bovine serum and maintained at 37° C. in a humidified atmosphere (5% CO2 and […]).
70 BALB/c (nu/nu) nude mice were adaptively bred for 1 week, HepG2 cells were inoculated subcutaneously into the back of nude mice, 1×10^7 cells per mouse. […] 3 days after inoculation, mice of every therapeutic group were all given the relevant compounds or drugs for 3 weeks, and others were given isodose physiological saline.
The body weight and the size of tumor were measured and recorded weekly. The tumor volume was calculated with the formula below:
tumor volume V=π/6×a×b^2 (a, b means the transverse and longitudinal length of tumor)
At the end of administration, mice were fastened for 8 hours, weighed the fasting body weight, dropped off eyeball to collect blood, centrifuged and collected serum for next experiment. The tumors were departed and weighed. Tumor Index and inhibition rate were calculated as below:
Tumor Index=Tumor mass (mg)/body weight of animal (g)
Inhibition rate=(Average tumor massControl group−Average tumor massadministration group)/Average tumor massControl group×100%
Mice in the model group were injected with sterile water (10 ml/kg BW), Sc. All the animals were treated at 9 am for 3 weeks.
Determination of body weights: Body weights of animals were weighed and recorded once a week.
Tumor measurement: The transverse and longitudinal lengths of tumor were measured with vernier caliper weekly.
End of the experiment: After mice being administrated for 3 weeks (21 days), the experiment was terminated.

HT29 = assay: MTT inhibition of tumor cells in vitro (Example 3); type: cell-based, Human; conditions: 40 μg/mL
Description: as §1, §2, §3, §4, §5, §6, §7

BGC823 = assay: MTT inhibition of tumor cells in vitro (Example 3); type: cell-based, Human; conditions: 40 μg/mL
Description: as §1, §2, §3, §4, §5, §6, §7

HepG2 = assay: MTT inhibition of tumor cells in vitro (Example 3); type: cell-based, Human; conditions: 40 μg/mL
[2] = 0 W, mg/kg BW: total saponins 1.5, Compound 1, combination 1 & 19, 5-FU 20
[3] = 1 W, mg/kg BW: total saponins 1.5, Compound 1, combination 1 & 19, 5-FU 20
[4] = 2 W, mg/kg BW: total saponins 1.5, Compound 1, combination 1 & 19, 5-FU 20
[5] = 3 W, mg/kg BW: total saponins 1.5, Compound 1, combination 1 & 19, 5-FU 20
[6] = BGC823-bearing nude mice, after 3 weeks
[7] = 1 W, mg/kg BW: total saponins 1.5, Compound 1, combination 1 & 19, PTX 20
[8] = 2 W, mg/kg BW: total saponins 1.5, Compound 1, combination 1 & 19, PTX 20
[9] = 3 W, mg/kg BW: total saponins 1.5, Compound 1, combination 1 & 19, PTX 20
[10] = HT29-bearing nude mice, after 3 weeks
[11] = 1 W, mg/kg BW: total saponins 1.5, Compound 1, combination 1 & 39, Cytoxan 40
[12] = 2 W, mg/kg BW: total saponins 1.5, Compound 1, combination 1 & 39, Cytoxan 40
[13] = 3 W, mg/kg BW: total saponins 1.5, Compound 1, combination 1 & 39, Cytoxan 40
[14] = HepG2-bearing nude mice, after 3 weeks

Compound: sinocrassuloside VI [Compound (1)]
- Inhibition rate, MCF-7 (MCF-7): 83.12 ± 2.33%
- Inhibition rate, A875 (A875): 88.02 ± 12.57%
- body weight of BGC823-bearing nude mice [1, 2]: 20.30 ± 1.06
- tumor volume of BGC823-bearing nude mice [1, 3]: 850.16 ± 539.70
- body weight of BGC823-bearing nude mice [1, 3]: 21.50 ± 1.18
- tumor volume of BGC823-bearing nude mice [1, 4]: 997.88 ± 499.61
- body weight of BGC823-bearing nude mice [1, 4]: 22.70 ± 1.16
- tumor volume of BGC823-bearing nude mice [1, 5]: 845.04 ± 239.21
- body weight of BGC823-bearing nude mice [1, 5]: 23.70 ± 1.06
- Inhibition rate [1, 6]: 64.54% and 61.54%
- Tumor mass ([1]; BGC823-bearing nude mice, after 3 weeks, mg/kg BW: total saponins 1.5, Compound 1, combination 1 & 19, 5-FU 20): 1.05 ± 0.36
- Tumor index [1, 6]: 0.04 ± 0.02
- tumor volume of HT29-bearing nude mice (HT29 human colon cancer; [7]): 1094.99 ± 678.00
- tumor volume of HT29-bearing nude mice (HT29 human colon cancer; [8]): 907.89 ± 738.11
- tumor volume of HT29-bearing nude mice (HT29 human colon cancer; [9]): 814.93 ± 450.73
- Inhibition rate (HT29 human colon cancer; [10]): 50.44%
- Tumor mass (HT29 human colon cancer; HT29-bearing nude mice, after 3 weeks, mg/kg BW: total saponins 1.5, Compound 1, combination 1 & 19, PTX 20): 1.15 ± 0.52
- Tumor index (HT29 human colon cancer; [10]): 0.05 ± 0.02
- tumor volume of HepG2-bearing nude mice (HepG2 human heptoma; [11]): 922.51 ± 624.95
- tumor volume of HepG2-bearing nude mice (HepG2 human heptoma; [12]): 1060.32 ± 570.38
- tumor volume of HepG2-bearing nude mice (HepG2 human heptoma; [13]): 1033.33 ± 656.54
- Inhibition rate (HepG2 human heptoma; [14]): 80.05%
- Tumor mass (HepG2 human heptoma; HepG2-bearing nude mice, after 3 weeks, mg/kg BW: total saponins 1.5, Compound 1, combination 1 & 39, Cytoxan 40): 0.59 ± 0.29
- Tumor index (HepG2 human heptoma; [14]): 0.03 ± 0.01

Compound: sinocrassuloside VIII [Compound (3)]
- Inhibition rate, HT29 (HT29; 48 hours): 56.62 ± 4.24%
- Inhibition rate, MCF-7 (MCF-7): 90.12 ± 7.43%
- Inhibition rate, BGC823 (BGC823; 48 hours): 92.09 ± 1.13%
- Inhibition rate, A875 (A875): 68.35 ± 5.37%
- Inhibition rate, HepG2 (HepG2; 48 hours): 74.35 ± 1.51%

Compound: COC(=O)C1CC(O[C@H]2CC[C@]3(C)[C@H]4C=CC5[C@@H]6CC(C)(C)CC[C@]6(C(=O)OC6OC(C)C(OC(=O)/C=C\c7ccc(C)cc7)C(OC(C)=O)C6OC6CC(C)C(O)C(O)C6O)[C@H](O)C[C@@]5(C)[C@]4(C)CC[C@H]3[C@]2(C)C=O)C(OC2OC(CO)C(O)C(O)C2O)C(OC2OCC(O)C(O)C2O)C1O (stereo partly shown) [Compound (4), sinocrassuloside IV]
- inhibition at 40 µg/mL (HT29; Homo sapiens, HT-29, 48 h, read-out: Inhibition rate, HT29): 90.6 ± 5.6%
- inhibition at 40 µg/mL (MCF-7; Homo sapiens, MCF7, 40 μg/mL, read-out: Inhibition rate, MCF-7): 56.2 ± 1.96%
- inhibition at 40 µg/mL (BGC823; Homo sapiens, BGC-823, 48 h, read-out: Inhibition rate, BGC823): 92.4 ± 6.24%
- inhibition at 40 µg/mL (A875; Homo sapiens, A875, 40 μg/mL, read-out: Inhibition rate, A875): 70.5 ± 9.76%
- inhibition at 40 µg/mL (HepG2; Homo sapiens, HepG2, 48 h, read-out: Inhibition rate, HepG2): 65.7 ± 1.05%

Compound: O=c1[nH]cc(F)c(=O)[nH]1 [Compound 5-FU, 5-FU, reference compound]
- body weight of BGC823-bearing nude mice [1, 2]: 20.20 ± 1.23
- tumor volume of BGC823-bearing nude mice [1, 3]: 931.38 ± 623.32
- body weight of BGC823-bearing nude mice [1, 3]: 19.50 ± 1.51
- tumor volume of BGC823-bearing nude mice [1, 4]: 1262.33 ± 764.46
- body weight of BGC823-bearing nude mice [1, 4]: 18.20 ± 1.81
- tumor volume of BGC823-bearing nude mice [1, 5]: 2212.36 ± 1196.96
- body weight of BGC823-bearing nude mice [1, 5]: 16.70 ± 2.20
- Inhibition rate [1, 6]: 54.85%
- Tumor index [1, 6]: 0.08 ± 0.04

Compound: O=P1(N(CCCl)CCCl)NCCCO1 (stereo not shown) [Cytoxan, reference compound]
- body weight of HepG2-bearing nude mice (HepG2 human heptoma; 0 W, mg/kg BW: total saponins 1.5, Compound 1, combination 1 & 39, Cytoxan 40): 19.20 ± 0.63
- body weight of HepG2-bearing nude mice (HepG2 human heptoma; [11]): 18.50 ± 1.08
- tumor volume of HepG2-bearing nude mice (HepG2 human heptoma; [11]): 988.47 ± 705.60
- body weight of HepG2-bearing nude mice (HepG2 human heptoma; [12]): 16.00 ± 1.41
- tumor volume of HepG2-bearing nude mice (HepG2 human heptoma; [12]): 1220.93 ± 881.80
- body weight of HepG2-bearing nude mice (HepG2 human heptoma; [13]): 14.70 ± 1.34
- tumor volume of HepG2-bearing nude mice (HepG2 human heptoma; [13]): 1593.79 ± 955.17
- Inhibition rate (HepG2 human heptoma; [14]): 70.46%
- Tumor index (HepG2 human heptoma; [14]): 0.06 ± 0.02

Compound: CC(=O)O[C@H]1C(=O)[C@@]2(C)[C@H]([C@H](OC(=O)c3ccccc3)[C@]3(O)C[C@H](OC(=O)[C@H](O)[C@@H](NC(=O)c4ccccc4)c4ccccc4)C(C)=C1C3(C)C)[C@]1(OC(C)=O)CO[C@@H]1C[C@@H]2O [PTX, Paclitaxel, reference compound]
- body weight of HT29-bearing nude mice (HT29 human colon cancer; 0 W, mg/kg BW: total saponins 1.5, Compound 1, combination 1 & 19, PTX 20): 20.60 ± 1.32
- body weight of HT29-bearing nude mice (HT29 human colon cancer; [7]): 20.30 ± 1.68
- tumor volume of HT29-bearing nude mice (HT29 human colon cancer; [7]): 943.55 ± 516.62
- body weight of HT29-bearing nude mice (HT29 human colon cancer; [8]): 19.80 ± 1.77
- tumor volume of HT29-bearing nude mice (HT29 human colon cancer; [8]): 996.66 ± 347.05
- body weight of HT29-bearing nude mice (HT29 human colon cancer; [9]): 19.20 ± 1.37
- tumor volume of HT29-bearing nude mice (HT29 human colon cancer; [9]): 801.38 ± 259.34
- Inhibition rate (HT29 human colon cancer; [10]): 60.81%
- Tumor index (HT29 human colon cancer; [10]): 0.06 ± 0.03
